The subject of series [1] is P. falciparum NF54 (drug-sensitive strain). Briefly: In vitro antiplasmodial assay (parasite lactate dehydrogenase), chloroquine-sensitive NF54 strain. It is filed as cell-based, Plasmodium falciparum. Particulars: sensitive (NF54) strain of P. falciparum, pLDH assay, 48 h, mean of ≥2 independent experiments, read-out: PfNF54 IC50. Here is the method: All the synthesized molecular hybrids (6–27) were evaluated for in vitro antiplasmodial activity against the drug-sensitive strain (NF54) of P. falciparum and for cytotoxicity against the Chinese Hamster Ovary (CHO) mammalian cell line using emetine as a reference drug. Aqueous solubility was determined at pH 6.5 (Table 2).
In-vitro anti-plasmodium assay. Compounds were tested using parasite lactate dehydrogenase assay as a marker for parasite survival. The respective stock solutions of CQ diphosphate and test compounds were prepared by dissolving 2 mg/mL in distilled water (for CQ) and 100% DMSO for test compounds. The solutions were then stored at −20 °C, with further dilutions prepared on the day of the experiment. The cultures were synchronized in the ring stage as described previously using 15 mL of 5% (w/v) d-sorbitol in water. Synchronous cultures of PfNF54 (CQS) in the late trophozoite stage were prepared to 2% parasitemia and 2% hematocrit. […] Following incubation, 100 μL of MalStat reagent and 15 μL of resuspended culture were combined, followed by addition of 25 μL of nitro blue tetrazolium chloride (NBT). The plates were kept in the dark for about 10 min to fully develop, and absorbance was measured at 620 nm on a microplate reader. Raw data were exported to Microsoft Excel for dose-response analysis.

Series [2] relates to Chinese Hamster Ovary (CHO) mammalian cell line. Briefly: Cytotoxicity MTT assay on CHO cells. The class given is cell-based. To be noted: for IC50: Cricetulus griseus, CHO, Chinese hamster ovarian cell line, MTT, 48 h; for SI (selectivity index): SI = IC50 (CHO)/IC50 (PfNF54). Here is the method: All the synthesized molecular hybrids (6–27) were evaluated for in vitro antiplasmodial activity against the drug-sensitive strain (NF54) of P. falciparum and for cytotoxicity against the Chinese Hamster Ovary (CHO) mammalian cell line using emetine as a reference drug. Aqueous solubility was determined at pH 6.5 (Table 2). Cytotoxicity assay. […] The reference standard, emetine, was prepared to 2 mg/mL in distilled water while stock solutions of test compounds were prepared to 20 mg/mL in 100% DMSO with the highest concentration of solvent to which the cells were exposed having no measurable effect on the cell viability. The initial concentration of the compounds and control was 100 μg/mL, which was serially diluted in complete medium with 10-fold dilutions to give six concentrations, the lowest being 0.001 μg/mL. Plates were incubated for 48 h with 100 μL of drug and 100 μL of cell suspension in each well and developed afterward by adding 25 μL of sterile MTT (Thermo Fisher Scientific) to each well, followed by 4 h of incubation in the dark. The plates were then centrifuged; the medium was aspirated, and 100 μL of DMSO was added to dissolve crystals before reading the absorbance at 540 nm. Data were analyzed, and the sigmoidal dose-response was derived using GraphPad Prism v 4.0 software (La Jolla). All experiments were performed for at least three independent biological repeats, each with technical triplicates.
On the technique in general: Formazan colour is commonly taken as a measure of viable cells.

The nature of series [3]: Aqueous solubility, miniaturized shake flask method (HPLC-DAD). The class given is physicochemical. To be noted: aqueous solution, aqueous buffer, thermodynamic from solid, pH 6.5, shake flask 20 h, 25 °C. Here is the method: All the synthesized molecular hybrids (6-27) were evaluated for in vitro antiplasmodial activity against the drug-sensitive strain (NF54) of P. falciparum and for cytotoxicity against the Chinese Hamster Ovary (CHO) mammalian cell line using emetine as a reference drug. Aqueous solubility was determined at pH 6.5 (Table 2). Aqueous solubility. Water solubility was analyzed using a miniaturized shake flask method. Ten millimolar stock solutions of each of the compounds were used to prepare calibration standards (10-220 μM) in DMSO. The same 10 mM stock solutions were accurately dispensed in duplicate into 96-well plates, and the DMSO, dried down ([…],90 min, 37 °C). Thereafter, the samples were reconstituted (200 μM) in an aqueous solution and shaken (20 h, 25 °C). The solutions were analyzed by means of HPLC-DAD (Agilent1200 Rapid Resolution HPLC with a diode array detector). Best fit calibration curves were constructed using the calibration standards, which were used to determine the aqueous samples' solubility.

Values after ≈ are worked out from the molar mass of the structure shown. Where two headings read alike, the source gives them in different places.

What is called IC50 is the concentration needed to halve the response being measured. The solubility is the dissolved amount per volume that the medium holds. What is called melting point is the temperature, or range, at which the solid turns liquid. `O=C(/C=C/c1ccc(F)cc1F)c1ccc(S(=O)(=O)NCCCNc2ccnc3cc(Cl)ccc23)cc1` [Compound 18, (E)-N-(3-((7-chloroquinolin-4-yl)amino)propyl)-4-(3-(2,4-difluorophenyl)acryloyl)benzenesulfonamide] had a melting point of 216 to 218 °C. For the same compound, the half-inhibitory concentration (IC50) in series [1] (Plasmodium falciparum) is 0.5 µM. In series [2], the IC50 was 22.4 µM and the “SI (selectivity index)” value stood at 45.2. In addition, the solubility at 20 h in series [3] was 130 µM (≈ 70.5 µg/mL).

In turn, `O=C(/C=C/c1cc(F)ccc1F)c1ccc(S(=O)(=O)NCCCNc2ccnc3cc(Cl)ccc23)cc1` [Compound 20, (E)-N-(3-((7-chloroquinolin-4-yl)amino)propyl)-4-(3-(2,5-difluorophenyl)acryloyl)benzenesulfonamide] returned a melting point of 219 to 221 °C. For the same compound, the IC50 in series [1] (Plasmodium falciparum) came out at 0.79 µM. Moreover, in series [2], it took 43.7 µM to reach half-maximal inhibition (IC50) and the “SI (selectivity index)” value is recorded as 55.3.

Compound `O=C(/C=C/c1ccc(F)cc1)c1ccc(S(=O)(=O)NCCCNc2ccnc3cc(Cl)ccc23)cc1` [Compound 9, (E)-N-(3-((7-chloroquinolin-4-yl)amino)propyl)-4-(3-(4-fluorophenyl)acryloyl)benzenesulfonamide] returned a melting point of 216 to 218 °C. In series [1] (Plasmodium falciparum), the IC50 was 0.28 µM. For the same compound, in series [2], the IC50 is 14.7 µM and the “SI (selectivity index)” value turned out to be 52.5. Also, in series [3], the solubility at 20 h is less than 5 µM.

Compound `O=C(/C=C/c1ccc(OC(F)(F)F)cc1)c1ccc(S(=O)(=O)NCCCNc2ccnc3cc(Cl)ccc23)cc1` [Compound 27, (E)-N-(3-((7-chloroquinolin-4-yl)amino)propyl)-4-(3-(4-(trifluoromethoxy)phenyl)acryloyl)benzenesulfonamide] displayed a melting point of 223 to 225 °C. Besides, in series [1] (Plasmodium falciparum), the half-inhibitory concentration (IC50) turned out to be 0.51 µM. Also, in series [2], the IC50 is 44 µM and the “SI (selectivity index)” value is 86.3.

In the case of “(E)-N-(2-((7-chloroquinolin-4-yl)amino)ethyl)-4-(3-ferrocenyl)acryloyl)benzenesulfonamide [Compound 23]”, the concentration for half-maximal inhibition (IC50) in series [1] was found to be 1.53 µM.

With `COc1ccc(/C=C/C(=O)c2ccc(S(=O)(=O)NCCCNc3ccnc4cc(Cl)ccc34)cc2)cc1OC` [Compound 14, (E)-N-(3-((7-chloroquinolin-4-yl)amino)propyl)-4-(3-(3,4-dimethoxyphenyl)acryloyl)benzenesulfonamide], the melting point was 222 to 224 °C. In series [1] (Plasmodium falciparum), the IC50 is 0.32 µM. Also, in series [2], it took 43.4 µM to reach half-maximal inhibition (IC50) and the “SI (selectivity index)” value turned out to be 135.6.

As to `O=C(/C=C/c1c(F)cccc1F)c1ccc(S(=O)(=O)NCCCNc2ccnc3cc(Cl)ccc23)cc1` [Compound 10, (E)-N-(3-((7-chloroquinolin-4-yl)amino)propyl)-4-(3-(2,6-difluorophenyl)acryloyl)benzenesulfonamide], the melting point was in the range of 223 to 225 °C. Also, in series [1] (Plasmodium falciparum), the IC50 worked out at 0.54 µM. In series [2], the IC50 is 27.6 µM and the “SI (selectivity index)” value worked out at 51.1. The compound further displayed a solubility at 20 h in series [3] of less than 5 µM.

`Cc1ccc(/C=C/C(=O)c2ccc(S(=O)(=O)NCCNc3ccnc4cc(Cl)ccc34)cc2)cc1` [Compound 22, (E)-N-(2-((7-chloroquinolin-4-yl)amino)ethyl)-4-(3-(p-tolyl)acryloyl)benzenesulfonamide] registered a melting point of 184 to 187 °C. For the same compound, the IC50 in series [1] (Plasmodium falciparum) came out at 0.39 µM. Also, in series [2], the half-inhibitory concentration (IC50) was 24.9 µM and the “SI (selectivity index)” value was 63.8. In series [3], the concentration in solution (solubility at 20 h) was 190 µM (≈ 96.1 µg/mL).

In turn, `CC(=O)c1ccc(S(=O)(=O)NCCNc2ccnc3cc(Cl)ccc23)cc1` [Compound 4, 4-acetyl-N-(2-((7-chloroquinolin-4-yl)amino)ethyl)benzenesulfonamide] yielded a melting point of 200 to 204 °C. For the same compound, the IC50 in series [1] (Plasmodium falciparum) amounted to 0.45 µM. Further, in series [2], half-maximal inhibition (IC50) was put at 26.3 µM and the “SI (selectivity index)” value was 58.4. In series [3], this compound registered a solubility at 20 h of 200 µM (≈ 80.8 µg/mL).

For `COc1ccc(/C=C/C(=O)c2ccc(S(=O)(=O)NCCNc3ccnc4cc(Cl)ccc34)cc2)cc1` [Compound 17, (E)-N-(2-((7-chloroquinolin-4-yl)amino)ethyl)-4-(3-(4-methoxyphenyl)acryloyl)benzenesulfonamide], the melting point lay in the range of 222 to 225 °C. For the same compound, the concentration for half-maximal inhibition (IC50) in series [1] (Plasmodium falciparum) worked out at 0.49 µM. Besides, in series [2], the half-inhibitory concentration (IC50) worked out at 17.5 µM and the “SI (selectivity index)” value came to 35.7. Moreover, the solubility at 20 h in series [3] stood at 185 µM (≈ 96.6 µg/mL).

For `CC[C@H]1CN2CCc3cc(OC)c(OC)cc3[C@@H]2C[C@@H]1C[C@H]1NCCc2cc(OC)c(OC)cc21` [Emetine, emetine, reference compound], half-maximal inhibition in series [2] (IC50) required 0.0034 µM.

In turn, `O=C(/C=C/c1ccc(F)c(F)c1)c1ccc(S(=O)(=O)NCCCNc2ccnc3cc(Cl)ccc23)cc1` [Compound 13, (E)-N-(3-((7-chloroquinolin-4-yl)amino)propyl)-4-(3-(3,4-difluorophenyl)acryloyl)benzenesulfonamide] registered a melting point of 212 to 214 °C. The half-inhibitory concentration (IC50) in series [1] (Plasmodium falciparum) is 2.58 µM. Also, in series [2], the IC50 is greater than 300 µM and the “SI (selectivity index)” value is reported as greater than 116. In addition, in series [3], the solubility at 20 h is less than 5 µM.

Consider `CC(=O)c1ccc(S(=O)(=O)NCCCNc2ccnc3cc(Cl)ccc23)cc1` [Compound 5, 4-acetyl-N-(3-((7-chloroquinolin-4-yl)amino)propyl)benzenesulfonamide], for which the melting point was 181 to 183 °C. Besides, the concentration for half-maximal inhibition (IC50) in series [1] (Plasmodium falciparum) stood at 0.48 µM. Further, in series [2], the IC50 is greater than 50 µM and the “SI (selectivity index)” value is greater than 104. The solubility at 20 h in series [3] is less than 5 µM.

On to `Cc1ccc(/C=C/C(=O)c2ccc(S(=O)(=O)NCCCNc3ccnc4cc(Cl)ccc34)cc2)cc1` [Compound 7, (E)-N-(3-((7-chloroquinolin-4-yl)amino)propyl)-4-(3-(p-tolyl)acryloyl)benzenesulfonamide], for which the melting point fell in the range of 209 to 213 °C. In series [1] (Plasmodium falciparum), the 50% inhibitory concentration (IC50) was found to be 0.37 µM. Moreover, in series [2], the 50% inhibitory concentration (IC50) stood at 25.1 µM and the “SI (selectivity index)” value amounted to 67.8. Moreover, the solubility at 20 h in series [3] stood at 130 µM (≈ 67.6 µg/mL).

For the compound `COc1ccc(/C=C/C(=O)c2ccc(S(=O)(=O)NCCNc3ccnc4cc(Cl)ccc34)cc2)cc1OC` [Compound 19, (E)-N-(2-((7-chloroquinolin-4-yl)amino)ethyl)-4-(3-(3,4-dimethoxyphenyl)acryloyl)benzenesulfonamide], the melting point was 223 to 225 °C. The half-maximal inhibitory concentration (IC50) in series [1] (Plasmodium falciparum) was determined as 0.33 µM. Further, in series [2], the IC50 is 45.1 µM and the “SI (selectivity index)” value worked out at 136.7.

With `O=C(/C=C/c1ccco1)c1ccc(S(=O)(=O)NCCCNc2ccnc3cc(Cl)ccc23)cc1` [Compound 21, (E)-N-(3-((7-chloroquinolin-4-yl)amino)propyl)-4-(3-(furan-2-yl)acryloyl)benzenesulfonamide], the melting point fell in the range of 222 to 224 °C. In series [1] (Plasmodium falciparum), the IC50 was determined as 4.45 µM. In series [2], the IC50 was greater than 50 µM and the “SI (selectivity index)” value was greater than 11. In series [3], this compound gave a solubility at 20 h of 200 µM (≈ 99.2 µg/mL).

Consider `O=C(C=Cc1ccccc1)c1ccc(S(=O)(=O)NCCCNc2ccnc3cc(Cl)ccc23)cc1` [Compound 6, N-(3-((7-chloroquinolin-4-yl)amino)propyl)-4-cinnamoylbenzenesulfonamide], for which the melting point was in the range of 210 to 212 °C. Moreover, the IC50 in series [1] (Plasmodium falciparum) stood at 1.67 µM. Also, in series [2], the concentration for half-maximal inhibition (IC50) is greater than 50 µM and the “SI (selectivity index)” value is on record as greater than 29.
